Assay results published in US10294202B2, “Pyrrolidinones as herbicides” (FMC Corporation, priority 2013, dated 2019).

Legend:
Test in all cases: Test D pre-/postemergence herbicide test
[1] = test system: bluegrass; assay type: in vivo, Poa annua; conditions: for Plant response rating: Bluegrass, scale 0 to 100; for Plant response rating, Bluegrass: scale 0 to 100 (0 no effect, 100 complete control)
Excerpt: (§1) Seeds of plant species selected from bluegrass (annual bluegrass, Poa annua), blackgrass (Alopecurus myosuroides), canarygrass (littleseed canarygrass, Phalaris minor), chickweed (common chickweed, Stellaria media), galium (catchweed bedstraw, Galium aparine), bromegrass, downy (downy bromegrass, Bromus tectorum), field poppy (Papaver rhoeas), field violet (Viola arvensis), foxtail, green (green foxtail, Setaria viridis), deadnettle (henbit deadnettle, Lamium amplexicaule), ryegrass, Italian (Italian ryegrass, Lolium multiflorum), kochia (Kochia scoparia), lambsquarters (Chenopodium album), oilseed rape (Brassica napus), pigweed (Amaranthus retroflexus), chamomile (scentless chamomile, Matricaria inodora), Russian thistle (Salsola kali), speedwell (bird's-eye speedwell, Veronica persica), barley, spring (spring barley, Hordeum vulgare), wheat, spring (spring wheat, Triticum aestivum), buckwheat, wild (wild buckwheat, Polygonum convolvulus), mustard, wild (wild mustard, Sinapis arvensis), oat, wild (wild oat, Avena fatua), radish, wild (wild radish, Raphanus raphanistrum), […]), barley, winter (winter barley, Hordeum vulgare), and wheat, winter (winter wheat, Triticum aestivum) were planted into a silt loam soil and treated preemergence with test chemicals formulated in a non-phytotoxic solvent mixture which included a surfactant. At the same time, these species were planted in pots containing Redi-Earth® planting medium (Scotts Company, 14111 Scottslawn Road, Marysville, Ohio 43041) comprising spaghnum peat moss, vermiculite, wetting agent and starter nutrients and treated with postemergence applications of the test chemicals formulated in the same manner. Plants ranged in height from 2 to 18 cm (1- to 4-leaf stage). Treated plants and controls were maintained in a controlled growth environment for 7 to 21 days after which time all species were compared to controls and visually evaluated. Plant response ratings, summarized in Table D, are based on a scale of 0 to 100 where 0 is no effect and 100 is complete control. A dash (-) response means no test result.

[2] = test system: blackgrass; assay type: in vivo, Alopecurus myosuroides; conditions: for Plant response rating: Blackgrass, scale 0 to 100; for Plant response rating, Blackgrass: scale 0 to 100 (0 no effect, 100 complete control)
Excerpt: as §1

[3] = test system: bromegrass, downy; assay type: in vivo, Bromus tectorum; conditions: for Plant response rating: Bromegrass, Downy, scale 0 to 100; for Plant response rating, Bromegrass, Downy: scale 0 to 100 (0 no effect, 100 complete control)
Outline: (§2)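 Visual 0–100 ratings (0 = no effect, 100 = complete control) versus controls, made 7 to 21 days after treatment in a controlled growth environment. Test chemicals in surfactant-containing non-phytotoxic solvent were applied preemergence to silt loam-sown seeds and postemergence to plants 2–18 cm tall.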

[4] = test system: lambsquarters; assay type: in vivo, Chenopodium album; conditions: for Plant response rating: Lambsquarters, scale 0 to 100; for Plant response rating, Lambsquarters: scale 0 to 100 (0 no effect, 100 complete control)
Excerpt: as §1

[5] = test system: speedwell; assay type: in vivo, Veronica persica; conditions: for Plant response rating: Postemergence, Speedwell, scale 0 to 100; for Plant response rating, Speedwell: Preemergence, scale 0 to 100 (0 no effect, 100 complete control)
Outline: as §2

[6] = test system: barley, spring; assay type: in vivo, Hordeum vulgare; conditions: for Plant response rating: Barley, Spring, scale 0 to 100; for Plant response rating, Barley, Spring: scale 0 to 100 (0 no effect, 100 complete control)
Outline: as §2

[7] = test system: barley, winter; assay type: in vivo, Hordeum vulgare; conditions: for Plant response rating: Barley, Winter, scale 0 to 100; for Plant response rating, Barley, Winter: scale 0 to 100 (0 no effect, 100 complete control)
Outline: as §2

## O=C1NCC(c2cc(F)c(F)c(F)c2)C1C(=O)Nc1ccccc1F (racemic) [Compound 34]
[1]; Postemergence, 16 g ai/ha
  Plant response rating: 0
[1]; Postemergence, 31 g ai/ha
  Plant response rating: 0
[1]; Postemergence, 62 g ai/ha
  Plant response rating: 0
[1]; Postemergence, 125 g ai/ha
  Plant response rating: 0
[1]; Postemergence, 250 g ai/ha
  Plant response rating: 0
[2]; Postemergence, 16 g ai/ha
  Plant response rating: 0
[2]; Postemergence, 31 g ai/ha
  Plant response rating: 0
[2]; Postemergence, 62 g ai/ha
  Plant response rating: 0
[2]; Postemergence, 125 g ai/ha
  Plant response rating: 0
[2]; Postemergence, 250 g ai/ha
  Plant response rating: 0
[3]; Postemergence, 16 g ai/ha
  Plant response rating: 0
[3]; Postemergence, 31 g ai/ha
  Plant response rating: 0
[3]; Postemergence, 62 g ai/ha
  Plant response rating: 0
[3]; Postemergence, 125 g ai/ha
  Plant response rating: 0
[3]; Postemergence, 250 g ai/ha
  Plant response rating: 0
[4]; Postemergence, 16 g ai/ha
  Plant response rating: 0
[4]; Postemergence, 31 g ai/ha
  Plant response rating: 0
[4]; Postemergence, 62 g ai/ha
  Plant response rating: 0
[4]; Postemergence, 125 g ai/ha
  Plant response rating: 0
[4]; Postemergence, 250 g ai/ha
  Plant response rating: 20
[5]; 16 g ai/ha
  Plant response rating: 0
[5]; 31 g ai/ha
  Plant response rating: 0
[5]; 62 g ai/ha
  Plant response rating: 0
[5]; 125 g ai/ha
  Plant response rating: 0
[5]; 250 g ai/ha
  Plant response rating: 30
[6]; Postemergence, 16 g ai/ha
  Plant response rating: 0
[6]; Postemergence, 31 g ai/ha
  Plant response rating: 0
[6]; Postemergence, 62 g ai/ha
  Plant response rating: 0
[6]; Postemergence, 125 g ai/ha
  Plant response rating: 0
[6]; Postemergence, 250 g ai/ha
  Plant response rating: 0
[7]; Postemergence, 16 g ai/ha
  Plant response rating: 0
[7]; Postemergence, 31 g ai/ha
  Plant response rating: 0
[7]; Postemergence, 62 g ai/ha
  Plant response rating: 0
[7]; Postemergence, 125 g ai/ha
  Plant response rating: 0
[7]; Postemergence, 250 g ai/ha
  Plant response rating: 0

## O=C1NCC(c2cccc(C(F)(F)F)c2)C1C(=O)Nc1ccc(F)cc1F (racemic) [Compound 207]
[1]; Preemergence, 31 g ai/ha
  Plant response rating, Bluegrass: 0
[1]; Preemergence, 62 g ai/ha
  Plant response rating, Bluegrass: 15
[1]; Preemergence, 125 g ai/ha
  Plant response rating, Bluegrass: 15
[1]; Preemergence, 250 g ai/ha
  Plant response rating: 30
[2]; Preemergence, 31 g ai/ha
  Plant response rating, Blackgrass: 0
[2]; Preemergence, 62 g ai/ha
  Plant response rating, Blackgrass: 5
[2]; Preemergence, 125 g ai/ha
  Plant response rating, Blackgrass: 20
[2]; Preemergence, 250 g ai/ha
  Plant response rating: 75
[3]; Preemergence, 31 g ai/ha
  Plant response rating, Bromegrass, Downy: 0
[3]; Preemergence, 62 g ai/ha
  Plant response rating, Bromegrass, Downy: 15
[3]; Preemergence, 125 g ai/ha
  Plant response rating, Bromegrass, Downy: 15
[3]; Preemergence, 250 g ai/ha
  Plant response rating: 15
[4]; Preemergence, 31 g ai/ha
  Plant response rating, Lambsquarters: 0
[4]; Preemergence, 62 g ai/ha
  Plant response rating, Lambsquarters: 30
[4]; Preemergence, 125 g ai/ha
  Plant response rating, Lambsquarters: 65
[4]; Preemergence, 250 g ai/ha
  Plant response rating: 90
[5]; 31 g ai/ha
  Plant response rating, Speedwell: 20
[5]; 62 g ai/ha
  Plant response rating, Speedwell: 20
[5]; 125 g ai/ha
  Plant response rating, Speedwell: 25
[5]; 250 g ai/ha
  Plant response rating, Speedwell: 30
[6]; Preemergence, 31 g ai/ha
  Plant response rating, Barley, Spring: 0
[6]; Preemergence, 62 g ai/ha
  Plant response rating, Barley, Spring: 5
[6]; Preemergence, 125 g ai/ha
  Plant response rating, Barley, Spring: 20
[6]; Preemergence, 250 g ai/ha
  Plant response rating: 25
[7]; Preemergence, 31 g ai/ha
  Plant response rating, Barley, Winter: 5
[7]; Preemergence, 62 g ai/ha
  Plant response rating, Barley, Winter: 10
[7]; Preemergence, 125 g ai/ha
  Plant response rating, Barley, Winter: 25
[7]; Preemergence, 250 g ai/ha
  Plant response rating: 45

## O=C1NCC(c2cccc(C(F)(F)F)c2)C1C(=O)Nc1cccc(F)c1F (stereo not shown) [Compound 241]
[1]; Preemergence, 31 g ai/ha
  Plant response rating, Bluegrass: 15
[1]; Preemergence, 62 g ai/ha
  Plant response rating, Bluegrass: 15
[1]; Preemergence, 125 g ai/ha
  Plant response rating, Bluegrass: 45
[1]; Preemergence, 250 g ai/ha
  Plant response rating: 70
[2]; Preemergence, 31 g ai/ha
  Plant response rating, Blackgrass: 20
[2]; Preemergence, 62 g ai/ha
  Plant response rating, Blackgrass: 55
[2]; Preemergence, 125 g ai/ha
  Plant response rating, Blackgrass: 50
[2]; Preemergence, 250 g ai/ha
  Plant response rating: 75
[3]; Preemergence, 31 g ai/ha
  Plant response rating, Bromegrass, Downy: 0
[3]; Preemergence, 62 g ai/ha
  Plant response rating, Bromegrass, Downy: 15
[3]; Preemergence, 125 g ai/ha
  Plant response rating, Bromegrass, Downy: 15
[3]; Preemergence, 250 g ai/ha
  Plant response rating: 60
[4]; Preemergence, 31 g ai/ha
  Plant response rating, Lambsquarters: 85
[4]; Preemergence, 62 g ai/ha
  Plant response rating, Lambsquarters: 90
[4]; Preemergence, 125 g ai/ha
  Plant response rating, Lambsquarters: 90
[4]; Preemergence, 250 g ai/ha
  Plant response rating: 90
[5]; 31 g ai/ha
  Plant response rating, Speedwell: 10
[5]; 62 g ai/ha
  Plant response rating, Speedwell: 35
[5]; 125 g ai/ha
  Plant response rating, Speedwell: 70
[5]; 250 g ai/ha
  Plant response rating, Speedwell: 85
[6]; Preemergence, 31 g ai/ha
  Plant response rating, Barley, Spring: 0
[6]; Preemergence, 62 g ai/ha
  Plant response rating, Barley, Spring: 10
[6]; Preemergence, 125 g ai/ha
  Plant response rating, Barley, Spring: 20
[6]; Preemergence, 250 g ai/ha
  Plant response rating: 35
[7]; Preemergence, 31 g ai/ha
  Plant response rating, Barley, Winter: 10
[7]; Preemergence, 62 g ai/ha
  Plant response rating, Barley, Winter: 10
[7]; Preemergence, 125 g ai/ha
  Plant response rating, Barley, Winter: 30
[7]; Preemergence, 250 g ai/ha
  Plant response rating: 65
